Source: the supplement of paper PMC10331698
± gives the standard deviation of the averaged measurements.

Columns and labels:
Test in all cases: level (log10 ratio to DMSO vehicle control); higher = higher biomarker level / cell amount than vehicle control
Conditions in all cases: in DMSO
[1] = compound: C=CC(=O)OCCC(F)(F)C(F)(F)C(F)(F)C(F)(F)F [2-(Perfluorobutyl)ethyl acrylate]
Protocol: (§1)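 BioMAP Diversity Plus panel of 12 human primary cell co-culture systems (3C, 4H, LPS, SAg, BT, BF4T, BE3C, CASM3C, HDF3CGF, KF3CT, MyoF, Mphg). Compounds were added 1 h before stimulation and left for 24 h (MyoF 48 h; BT 72 h for soluble read-outs or 6 d for IgG). Biomarkers were read by ELISA, cytotoxicity by SRB, PBMC viability and proliferation by Alamar Blue. Each well value was divided by the mean of 8 DMSO control wells on the same plate and log10 transformed; duplicate blinded samples were tested at 4 concentrations.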

[2] = compound: CC(C)(C)C(=O)CC(=O)C(F)(F)C(F)(F)C(F)(F)F [(Heptafluorobutanoyl)pivaloylmethane]
Protocol: as §1

[3] = compound: N=C(N)C(F)(F)C(F)(F)C(F)(F)C(F)(F)C(F)(F)C(F)(F)C(F)(F)F [Perfluorooctanamidine]
Protocol: as §1

[4] = compound: NC(=O)C(F)(F)C(F)(F)C(F)(F)C(F)(F)C(F)(F)C(F)(F)C(F)(F)F [Perfluorooctanamide]
Protocol: as §1

[5] = compound: O=C(O)C(F)(F)C(F)(F)C(F)(F)C(F)(F)C(F)(F)C(F)(F)C(F)(F)C(F)(F)Cl [9-Chloro-perfluorononanoic acid]
Protocol: as §1

[6] = compound: O=C(O)CCC(F)(F)C(F)(F)C(F)(F)C(F)(F)C(F)(F)F [2H,2H,3H,3H-Perfluorooctanoic acid]
Protocol: as §1

[7] = compound: OCC(F)(F)C(F)(F)C(F)(F)C(F)(F)C(F)(F)C(F)F [1H,1H,7H-Dodecafluoro-1-heptanol]
Protocol: as §1

| Test System | level (log10) ([1]; 6700 nM) | level (log10) ([1]; 20000 nM) | level (log10) ([1]; 60000 nM) | level (log10) ([2]; 6700 nM) | level (log10) ([2]; 20000 nM) | level (log10) ([2]; 60000 nM) | level (log10) ([3]; 6700 nM) | level (log10) ([3]; 20000 nM) | level (log10) ([3]; 60000 nM) | level (log10) ([4]; 6700 nM) | level (log10) ([4]; 20000 nM) | level (log10) ([4]; 60000 nM) | level (log10) ([5]; 6700 nM) | level (log10) ([5]; 20000 nM) | level (log10) ([6]; 6700 nM) | level (log10) ([6]; 20000 nM) | level (log10) ([6]; 60000 nM) | level (log10) ([7]; 6700 nM) | level (log10) ([7]; 20000 nM) | level (log10) ([7]; 60000 nM) |
| --- | --- | --- | --- | --- | --- | --- | --- | --- | --- | --- | --- | --- | --- | --- | --- | --- | --- | --- | --- | --- |
| HDF3CGF:CD54/ICAM-1 | -0.028 ± 0.025 | -0.035 ± 0.025 | -0.131 ± 0.059 | 0 ± 0.0057 | -0.0075 ± 0.013 | 0.0065 ± 0.00071 | -0.0235 ± 0.0064 | -0.014 ± 0.013 | -0.072 | -0.009 | 0.002 ± 0.0085 | -0.02 ± 0.016 | -0.077 ± 0.017 | -0.112 ± 0.014 | -0.0095 ± 0.0064 | -0.0215 ± 0.019 | -0.036 ± 0.023 | 0.006 ± 0.0085 | 0.0015 ± 0.012 | -0.003 ± 0.0099 |
| HDF3CGF:CD106/VCAM-1 | -0.068 ± 0.0028 | -0.203 ± 0.049 | -0.317 ± 0.041 | 0.0085 ± 0.023 | 0.032 ± 0.0071 | -0.0925 ± 0.054 | -0.0215 ± 0.013 | -0.132 ± 0.018 | -0.214 | -0.015 ± 0.0099 | 0.0005 ± 0.005 | -0.016 ± 0.0085 | -0.0005 ± 0.074 | -0.067 ± 0.096 | 0.046 ± 0.082 | 0.044 ± 0.088 | 0.0435 ± 0.071 | 0.014 ± 0.0014 | 0.011 ± 0.0085 | -0.0045 ± 0.00071 |
| HDF3CGF:CXCL8/IL-8 | -0.003 ± 0.011 | 0 ± 0.0028 | -0.007 ± 0.021 | 0.0025 ± 0.0035 | -0.001 ± 0.0099 | -0.0005 ± 0.0035 | 0.006 ± 0.0014 | 0.0135 ± 0.005 | 0.007 | -0.0075 ± 0.0021 | -0.0055 ± 0.012 | -0.005 ± 0.0014 | -0.0225 ± 0.011 | 0.0015 ± 0.005 | -0.014 ± 0.014 | -0.009 ± 0.014 | -0.007 ± 0.025 | 0.0045 ± 0.016 | 0.0035 ± 0.019 | 0.0055 ± 0.0035 |
| HDF3CGF:CXCL9/MIG | -0.0335 ± 0.019 | -0.176 ± 0.064 | -0.498 ± 0.071 | 0.0025 ± 0.012 | 0 ± 0.02 | -0.025 ± 0.033 | 0.0055 ± 0.023 | -0.003 ± 0.018 | 0.018 | -0.014 ± 0.013 | 0.0115 ± 0.012 | 0.0415 ± 0.0078 | -0.047 ± 0.02 | -0.142 ± 0.04 | -0.01 ± 0.047 | -0.019 ± 0.047 | -0.036 ± 0.044 | 0.0015 ± 0.013 | -0.022 ± 0.038 | 0.011 ± 0.011 |
| HDF3CGF:CXCL10/IP-10 | -0.0135 ± 0.029 | -0.0985 ± 0.013 | -0.281 ± 0.032 | -0.0195 ± 0.0078 | -0.0105 ± 0.012 | -0.076 ± 0.023 | 0.024 ± 0.014 | -0.004 ± 0.034 | -0.122 | -0.0165 ± 0.019 | 0.003 ± 0.0014 | 0.0305 ± 0.011 | -0.06 ± 0.027 | -0.175 ± 0.0021 | -0.0015 ± 0.0092 | 0.02 ± 0.0014 | -0.0205 ± 0.054 | -0.0015 ± 0.015 | -0.0055 ± 0.0021 | -0.011 ± 0.018 |
| HDF3CGF:CXCL11/I-TAC | -0.045 ± 0.062 | -0.124 ± 0.023 | -0.317 ± 0.087 | 0.012 ± 0.014 | -0.0155 ± 0.005 | -0.06 ± 0.013 | 0.024 ± 0.025 | 0.0285 ± 0.029 | -0.119 | -0.006 ± 0.0099 | -0.0185 ± 0.016 | -0.016 ± 0.0057 | -0.105 ± 0.029 | -0.217 ± 0.069 | -0.0455 ± 0.12 | -0.084 ± 0.11 | -0.0825 ± 0.11 | 0.011 ± 0.0028 | 0 ± 0.018 | -0.0015 ± 0.011 |
| HDF3CGF:Collagen I | -0.065 ± 0.02 | -0.0225 ± 0.042 | -0.0295 ± 0.054 | -0.0025 ± 0.029 | -0.044 ± 0.04 | 0.0405 ± 0.044 | -0.015 ± 0.0085 | -0.025 ± 0.03 | -0.021 | -0.0135 ± 0.043 | -0.0555 ± 0.013 | 0.0095 ± 0.081 | -0.0595 ± 0.005 | -0.151 ± 0.0042 | 0.0065 ± 0.079 | -0.004 ± 0.078 | 0.0195 ± 0.14 | -0.0095 ± 0.011 | -0.019 ± 0.027 | 0.0025 ± 0.08 |
| HDF3CGF:Collagen III | -0.005 ± 0.0014 | -0.0605 ± 0.0021 | -0.127 ± 0.03 | -0.008 ± 0.11 | 0.0535 ± 0.025 | 0.0555 ± 0.018 | -0.047 ± 0.018 | -0.196 ± 0.045 | -0.172 | -0.018 ± 0.014 | -0.02 ± 0.0014 | -0.0085 ± 0.056 | -0.0835 ± 0.046 | -0.235 ± 0.061 | -0.064 ± 0.055 | -0.076 ± 0.033 | -0.039 ± 0.061 | -0.002 ± 0.018 | -0.0065 ± 0.0078 | 0.0145 ± 0.015 |
| HDF3CGF:EGFR | -0.002 ± 0.016 | -0.0165 ± 0.005 | -0.0055 ± 0.021 | 0.027 ± 0.016 | -0.102 ± 0.031 | 0.009 ± 0.055 | -0.017 ± 0.02 | 0.01 ± 0.011 | -0.013 | 0.008 ± 0.013 | 0.0125 ± 0.015 | 0.0375 ± 0.042 | -0.135 ± 0.099 | -0.2 ± 0.054 | -0.055 ± 0.025 | -0.0435 ± 0.037 | -0.0205 ± 0.03 | -0.004 ± 0.025 | -0.015 ± 0.03 | 0.0075 ± 0.011 |
| HDF3CGF:M-CSF | -0.0445 ± 0.0092 | -0.154 ± 0.054 | -0.259 ± 0.12 | 0.026 ± 0.014 | 0.03 ± 0.038 | 0 ± 0.028 | -0.017 ± 0.014 | -0.0485 ± 0.018 | -0.177 | 0.001 ± 0.023 | 0.0055 ± 0.00071 | 0.027 ± 0.0014 | -0.058 ± 0.041 | -0.089 ± 0.025 | -0.044 ± 0.089 | -0.067 ± 0.086 | -0.051 ± 0.12 | -0.0025 ± 0.018 | -0.0055 ± 0.00071 | -0.0045 ± 0.0035 |
| HDF3CGF:MMP-1 | 0.0135 ± 0.0064 | 0.0905 ± 0.022 | 0.133 ± 0.022 | 0.006 ± 0.0071 | -0.002 ± 0.0014 | 0.01 ± 0.024 | -0.008 ± 0.0099 | 0.012 ± 0.0085 | -0.008 | 0.0175 ± 0.00071 | 0.003 ± 0.0071 | -0.0025 ± 0.028 | -0.0875 ± 0.005 | -0.118 ± 0.011 | -0.009 ± 0.023 | -0.0385 ± 0.05 | -0.0675 ± 0.076 | 0.0115 ± 0.015 | 0.0105 ± 0.0021 | 0.012 ± 0.02 |
| HDF3CGF:PAI-I | -0.0135 ± 0.0035 | -0.0185 ± 0.023 | -0.016 ± 0.024 | 0.011 ± 0.016 | 0.0255 ± 0.00071 | 0.0685 ± 0.049 | -0.0225 ± 0.013 | 0.02 ± 0.014 | -0.233 | -0.016 ± 0.013 | -0.03 ± 0.0099 | -0.0235 ± 0.0078 | 0.0685 ± 0.033 | 0.0245 ± 0.015 | 0.0145 ± 0.016 | -0.004 ± 0.011 | -0.0085 ± 0.0078 | -0.008 ± 0.0085 | -0.004 ± 0.02 | 0.006 ± 0.047 |
| HDF3CGF:Proliferation 72hr | -0.0325 ± 0.0092 | -0.124 ± 0.054 | -0.197 ± 0.041 | -0.0465 ± 0.028 | 0.097 ± 0.031 | 0.094 ± 0.014 | -0.0255 ± 0.043 | -0.0515 ± 0.1 | -0.564 | 0.0335 ± 0.049 | 0.004 ± 0.023 | -0.0165 ± 0.022 | 0.101 ± 0.022 | -0.081 ± 0.054 | -0.002 ± 0.054 | 0.007 ± 0.033 | 0.023 ± 0.018 | 0.0045 ± 0.066 | 0 ± 0.072 | 0.003 ± 0.044 |
| HDF3CGF:SRB | -0.0125 ± 0.057 | -0.092 ± 0.073 | -0.0805 ± 0.06 | 0.0015 ± 0.0021 | 0.0085 ± 0.013 | 0.0345 ± 0.032 | -0.01 ± 0.017 | 0.0155 ± 0.0035 | -0.048 | 0.01 ± 0.028 | -0.0025 ± 0.033 | 0.0285 ± 0.019 | 0.081 ± 0.016 | 0.065 ± 0.033 | -0.006 ± 0.034 | 0.0185 ± 0.04 | 0.077 ± 0.028 | -0.0345 ± 0.033 | -0.007 ± 0.05 | -0.0055 ± 0.057 |
